Laboratory results published in ChEMBL document CHEMBL4507272 (2021).

Legend:
[1] = tested on: Receptor-type tyrosine-protein kinase FLT3 (Homo sapiens), P36888 [UNDEFINED MUTATION]; settings: Compound concentration 1000.0 nM
[2] = tested on: Receptor-type tyrosine-protein kinase FLT3 (Homo sapiens), P36888 [D835H]; settings: Compound concentration 1000.0 nM
[3] = biological target: Calcium/calmodulin-dependent protein kinase type 1B (Homo sapiens) (UniProt Q6P2M8); settings: Compound concentration 1000.0 nM
[4] = biological target: Protein kinase C theta type (Homo sapiens) (UniProt Q04759); settings: Compound concentration 1000.0 nM
[5] = biological target: Casein kinase I isoform delta (Homo sapiens) (UniProt P48730); settings: Compound concentration 1000.0 nM
[6] = tested on: Receptor-type tyrosine-protein kinase FLT3 (Homo sapiens), P36888 [D835V]; settings: Compound concentration 1000.0 nM
[7] = biological target: Mitogen-activated protein kinase 12 (Homo sapiens) (UniProt P53778); settings: Compound concentration 1000.0 nM
[8] = biological target: Dual serine/threonine and tyrosine protein kinase (Homo sapiens) (UniProt Q6XUX3); settings: Compound concentration 1000.0 nM
Dual serine/threonine and tyrosine protein kinase (Homo sapiens), sequence (Q6XUX3 whole entry): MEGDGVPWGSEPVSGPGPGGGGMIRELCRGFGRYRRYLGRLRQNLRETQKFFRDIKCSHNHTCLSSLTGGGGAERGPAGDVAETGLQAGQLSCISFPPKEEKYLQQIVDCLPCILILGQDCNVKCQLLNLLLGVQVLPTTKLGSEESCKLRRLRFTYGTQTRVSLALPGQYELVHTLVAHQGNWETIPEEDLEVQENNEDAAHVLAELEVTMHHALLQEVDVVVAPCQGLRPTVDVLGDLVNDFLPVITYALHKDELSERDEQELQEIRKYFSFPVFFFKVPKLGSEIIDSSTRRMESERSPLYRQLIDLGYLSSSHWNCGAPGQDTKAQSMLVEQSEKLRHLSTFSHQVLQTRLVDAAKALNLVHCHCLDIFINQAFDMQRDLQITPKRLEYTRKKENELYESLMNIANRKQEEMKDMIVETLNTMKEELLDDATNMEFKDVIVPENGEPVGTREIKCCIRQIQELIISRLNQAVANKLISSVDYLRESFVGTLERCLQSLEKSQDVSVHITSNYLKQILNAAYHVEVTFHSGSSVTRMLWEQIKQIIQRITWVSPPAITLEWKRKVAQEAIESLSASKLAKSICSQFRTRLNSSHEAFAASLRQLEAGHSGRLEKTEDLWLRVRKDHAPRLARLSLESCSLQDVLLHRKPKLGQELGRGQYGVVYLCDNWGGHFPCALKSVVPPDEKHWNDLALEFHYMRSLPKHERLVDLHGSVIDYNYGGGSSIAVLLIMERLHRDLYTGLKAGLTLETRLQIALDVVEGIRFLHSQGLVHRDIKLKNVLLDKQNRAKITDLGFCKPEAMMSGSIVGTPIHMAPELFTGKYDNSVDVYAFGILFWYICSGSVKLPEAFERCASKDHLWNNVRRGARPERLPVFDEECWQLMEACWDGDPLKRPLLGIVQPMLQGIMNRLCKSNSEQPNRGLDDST

[9] = biological target: Muscarinic acetylcholine receptor M4 (Homo sapiens) (UniProt P08173); settings: Compound concentration 10.0 uM
Muscarinic acetylcholine receptor M4 (Homo sapiens), sequence (P08173 whole entry): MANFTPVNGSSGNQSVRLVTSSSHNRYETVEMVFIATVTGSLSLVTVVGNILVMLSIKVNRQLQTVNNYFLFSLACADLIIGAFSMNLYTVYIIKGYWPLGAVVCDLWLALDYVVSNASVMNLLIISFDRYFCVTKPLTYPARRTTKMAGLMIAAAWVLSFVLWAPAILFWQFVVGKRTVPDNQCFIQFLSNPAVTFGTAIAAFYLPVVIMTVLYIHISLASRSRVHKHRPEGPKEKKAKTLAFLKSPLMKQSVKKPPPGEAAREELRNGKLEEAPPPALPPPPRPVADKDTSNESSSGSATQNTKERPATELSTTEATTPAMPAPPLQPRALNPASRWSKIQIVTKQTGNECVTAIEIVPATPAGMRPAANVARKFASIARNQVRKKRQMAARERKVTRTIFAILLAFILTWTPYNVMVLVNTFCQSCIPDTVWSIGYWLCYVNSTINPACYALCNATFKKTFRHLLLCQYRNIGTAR

[10] = biological target: Cyclin-dependent kinase 18 (Homo sapiens) (UniProt Q07002); settings: Compound concentration 1000.0 nM
Cyclin-dependent kinase 18 (Homo sapiens), sequence (Q07002 whole entry): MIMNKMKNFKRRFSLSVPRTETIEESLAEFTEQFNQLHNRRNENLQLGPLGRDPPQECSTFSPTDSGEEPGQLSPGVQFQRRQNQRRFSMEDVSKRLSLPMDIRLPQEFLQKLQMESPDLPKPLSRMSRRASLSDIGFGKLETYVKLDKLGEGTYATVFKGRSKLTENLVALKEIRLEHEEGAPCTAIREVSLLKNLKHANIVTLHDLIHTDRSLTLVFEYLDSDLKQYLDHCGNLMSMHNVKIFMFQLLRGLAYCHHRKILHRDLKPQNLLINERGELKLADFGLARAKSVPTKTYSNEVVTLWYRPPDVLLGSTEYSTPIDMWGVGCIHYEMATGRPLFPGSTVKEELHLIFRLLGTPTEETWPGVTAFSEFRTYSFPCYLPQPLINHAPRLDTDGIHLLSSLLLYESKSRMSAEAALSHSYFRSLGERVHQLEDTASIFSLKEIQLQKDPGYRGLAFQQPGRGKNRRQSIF

[11] = biological target: Serine/threonine-protein kinase N1 (Homo sapiens) (UniProt Q16512); settings: Compound concentration 1000.0 nM
[12] = biological target: Activin receptor type-1-like (Homo sapiens) (UniProt P37023); settings: Compound concentration 1000.0 nM
Activin receptor type-1-like (Homo sapiens), sequence (P37023 whole entry): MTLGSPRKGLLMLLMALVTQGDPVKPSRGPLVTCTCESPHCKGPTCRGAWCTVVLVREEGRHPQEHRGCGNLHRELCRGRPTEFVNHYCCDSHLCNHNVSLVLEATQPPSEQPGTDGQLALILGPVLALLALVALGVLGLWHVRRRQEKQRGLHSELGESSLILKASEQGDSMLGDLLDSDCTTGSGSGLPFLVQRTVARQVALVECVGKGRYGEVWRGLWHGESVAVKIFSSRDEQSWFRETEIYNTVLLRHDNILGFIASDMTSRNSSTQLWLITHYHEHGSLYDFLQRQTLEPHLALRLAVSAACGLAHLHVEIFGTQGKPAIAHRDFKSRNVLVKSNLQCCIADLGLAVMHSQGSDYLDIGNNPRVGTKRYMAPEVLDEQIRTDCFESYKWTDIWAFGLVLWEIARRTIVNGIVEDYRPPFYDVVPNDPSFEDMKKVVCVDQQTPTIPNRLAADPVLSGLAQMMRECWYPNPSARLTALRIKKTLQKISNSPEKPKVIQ

[13] = biological target: RAC-gamma serine/threonine-protein kinase (Homo sapiens) (UniProt Q9Y243); settings: Compound concentration 1000.0 nM
RAC-gamma serine/threonine-protein kinase (Homo sapiens), sequence (Q9Y243 whole entry): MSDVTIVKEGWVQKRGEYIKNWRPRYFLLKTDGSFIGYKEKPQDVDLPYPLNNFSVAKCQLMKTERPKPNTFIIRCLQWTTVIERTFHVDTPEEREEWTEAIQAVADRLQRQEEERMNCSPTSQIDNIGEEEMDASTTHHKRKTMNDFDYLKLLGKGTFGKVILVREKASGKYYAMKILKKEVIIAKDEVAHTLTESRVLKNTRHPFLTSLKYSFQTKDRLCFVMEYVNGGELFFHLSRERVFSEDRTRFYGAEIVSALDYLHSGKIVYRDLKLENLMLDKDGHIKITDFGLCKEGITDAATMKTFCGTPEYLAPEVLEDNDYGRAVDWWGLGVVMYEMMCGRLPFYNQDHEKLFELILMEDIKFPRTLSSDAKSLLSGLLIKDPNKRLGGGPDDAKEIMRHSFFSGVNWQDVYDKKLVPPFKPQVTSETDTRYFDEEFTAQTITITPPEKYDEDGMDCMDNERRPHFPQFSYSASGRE

[14] = tested on: Tyrosine-protein kinase ABL1 (Homo sapiens), P00519 [Q252H]; settings: Compound concentration 1000.0 nM
[15] = biological target: NT-3 growth factor receptor (Homo sapiens) (UniProt Q16288); settings: Compound concentration 1000.0 nM
NT-3 growth factor receptor (Homo sapiens), sequence (Q16288 32-839 limits assumed): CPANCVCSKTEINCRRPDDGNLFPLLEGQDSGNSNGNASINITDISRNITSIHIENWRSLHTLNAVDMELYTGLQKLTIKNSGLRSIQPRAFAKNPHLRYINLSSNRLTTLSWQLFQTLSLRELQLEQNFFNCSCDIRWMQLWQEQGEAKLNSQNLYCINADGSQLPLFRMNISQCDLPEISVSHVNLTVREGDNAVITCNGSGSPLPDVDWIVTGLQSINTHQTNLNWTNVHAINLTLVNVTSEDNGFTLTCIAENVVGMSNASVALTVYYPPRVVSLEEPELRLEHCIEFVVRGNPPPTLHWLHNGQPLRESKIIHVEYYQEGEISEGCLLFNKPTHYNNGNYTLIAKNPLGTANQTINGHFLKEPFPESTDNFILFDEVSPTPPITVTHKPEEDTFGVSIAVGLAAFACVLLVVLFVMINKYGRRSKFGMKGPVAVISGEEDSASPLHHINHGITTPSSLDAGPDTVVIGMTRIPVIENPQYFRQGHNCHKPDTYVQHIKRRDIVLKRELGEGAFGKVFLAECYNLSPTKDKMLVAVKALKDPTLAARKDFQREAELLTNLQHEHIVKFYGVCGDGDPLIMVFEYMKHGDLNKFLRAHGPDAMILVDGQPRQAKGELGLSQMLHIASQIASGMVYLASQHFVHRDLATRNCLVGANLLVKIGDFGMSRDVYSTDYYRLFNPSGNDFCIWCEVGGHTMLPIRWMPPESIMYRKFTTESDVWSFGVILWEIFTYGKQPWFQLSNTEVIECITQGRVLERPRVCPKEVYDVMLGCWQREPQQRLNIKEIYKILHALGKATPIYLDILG

[16] = biological target: Mitogen-activated protein kinase kinase kinase kinase 1 (Homo sapiens) (UniProt Q92918); settings: Compound concentration 1000.0 nM
Mitogen-activated protein kinase kinase kinase kinase 1 (Homo sapiens), sequence (Q92918 whole entry, looked up): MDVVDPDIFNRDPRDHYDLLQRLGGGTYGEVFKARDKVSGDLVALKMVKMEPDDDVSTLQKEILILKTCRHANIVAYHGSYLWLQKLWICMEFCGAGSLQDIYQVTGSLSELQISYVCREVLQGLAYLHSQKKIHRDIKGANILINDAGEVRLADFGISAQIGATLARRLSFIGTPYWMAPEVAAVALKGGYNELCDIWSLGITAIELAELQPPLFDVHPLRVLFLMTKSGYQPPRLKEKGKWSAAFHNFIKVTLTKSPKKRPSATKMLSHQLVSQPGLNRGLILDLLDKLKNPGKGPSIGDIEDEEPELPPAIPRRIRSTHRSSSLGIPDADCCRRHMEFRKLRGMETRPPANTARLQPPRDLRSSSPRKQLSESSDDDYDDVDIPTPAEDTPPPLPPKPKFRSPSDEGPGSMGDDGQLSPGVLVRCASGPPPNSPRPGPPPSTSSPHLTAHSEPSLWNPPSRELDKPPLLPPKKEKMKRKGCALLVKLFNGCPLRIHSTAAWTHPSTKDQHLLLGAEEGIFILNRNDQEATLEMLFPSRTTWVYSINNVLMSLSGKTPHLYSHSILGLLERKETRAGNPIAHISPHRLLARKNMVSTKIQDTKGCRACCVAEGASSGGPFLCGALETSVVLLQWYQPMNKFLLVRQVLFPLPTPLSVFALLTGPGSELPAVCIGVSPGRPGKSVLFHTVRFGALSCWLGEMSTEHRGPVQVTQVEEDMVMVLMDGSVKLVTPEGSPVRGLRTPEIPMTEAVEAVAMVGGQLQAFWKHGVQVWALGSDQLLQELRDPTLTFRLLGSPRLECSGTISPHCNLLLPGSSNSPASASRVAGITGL

[17] = biological target: Ribosomal protein S6 kinase alpha-2 (Homo sapiens) (UniProt Q15349); settings: Compound concentration 1000.0 nM
[18] = biological target: Testis-specific serine/threonine-protein kinase 1 (Homo sapiens) (UniProt Q9BXA7); settings: Compound concentration 1000.0 nM
Testis-specific serine/threonine-protein kinase 1 (Homo sapiens), sequence (Q9BXA7 whole entry): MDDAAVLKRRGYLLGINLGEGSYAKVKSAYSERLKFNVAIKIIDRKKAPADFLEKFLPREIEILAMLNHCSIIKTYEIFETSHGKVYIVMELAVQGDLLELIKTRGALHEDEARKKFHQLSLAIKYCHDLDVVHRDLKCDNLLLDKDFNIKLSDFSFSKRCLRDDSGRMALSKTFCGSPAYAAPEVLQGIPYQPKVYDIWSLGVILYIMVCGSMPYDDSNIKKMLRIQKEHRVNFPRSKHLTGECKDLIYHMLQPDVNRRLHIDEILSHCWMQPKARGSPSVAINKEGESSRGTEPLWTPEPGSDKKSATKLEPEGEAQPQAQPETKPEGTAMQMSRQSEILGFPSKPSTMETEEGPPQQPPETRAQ

CC(=O)C1=C(C)N(c2cccc(C(F)(F)F)c2)C(=O)N[C@@H]1c1ccc(C#N)nc1 [BAY-678]
inactive: residual activity [1] 87.4% | residual activity [2] 100% | residual activity [3] 92.4% | residual activity [4] 83.3% | residual activity [5] 100% | residual activity [6] 64.2% | residual activity [7] 77.4% | residual activity [8] 76.9% | inhibition [9] -6.72% | residual activity [10] 85.1% | residual activity [11] 71.1% | residual activity [12] 71.7% | residual activity [13] 90.6% | residual activity [14] 100% | residual activity [15] 100% | residual activity [16] 100% | residual activity [17] 100% | residual activity [18] 100%
